Test [1] concerns CHO/NatClytin/mock+Gα16 (mock) cells. As to the kind of experiment: Mock control of the agonist/PAM assay with ATP as agonist. The test is classed as cell-based. The following applies: concentration used as min signal in PAM mode. The procedure: CHO/NatClytin/fGpr120+Gα16 (fGpr120) cells and CHO/NatClytin/mock+Gα16 (mock) cells were seeded at 5,000 cells/well. 24 hours after cell seeding, cells were loaded with 0.5×Fluo8-NW dye in standard tyrode buffer (20 μl/well) for 1 h at room temperature. The ability of dodecyl dihydrogen phosphate to activate fGPR120 expressed by the CHO cells was determined by measuring fluorescence using a FLIPR® Tetra screening system after contacting the cells with the compound in agonist mode and PAM mode according to the following protocol: • 1. […] PAM mode: injection of 3× dodecyl dihydrogen phosphate (10 μl/well), wherein fluorescence was measured for 3 min. After about 1 additional minute, injection of 3× fGPR120 agonist at a concentration corresponding to the agonist's EC20 (15 μl/well), wherein fluorescence (i.e., PAM activity) was measured for 3 min. The fGPR120 agonist was 1.5 μM α-linolenic acid. For mock controls, 0.2μ ATP was used as the agonist.
Controls for PAM mode experiments—dose response curves of α-linolenic acid (fGpr120) or ATP (mock) (FIGS. 12A and 12B): 100 μM α-linolenic acid (max signal for Gpr120), 1.5 μM α-linolenic acid (EC20, min signal for Gpr120), 30 μM ATP (max signal), 0.2 μM ATP (EC20, min signal).

For another test, the system named is fGPR120. In words: fGPR120 agonist mode / PAM mode assay in CHO/NatClytin/fGpr120+Gα16 cells, Fluo8-NW, FLIPR Tetra. In kind it is cell-based, feline. The procedure: Methods: CHO cells that stably express fGPR120 were used to assay dodecyl dihydrogen phosphate for activity as an fGPR120 agonist or PAM.
CHO/NatClytin/fGpr120+Gα16 (fGpr120) cells and CHO/NatClytin/mock+Gα16 (mock) cells were seeded at 5,000 cells/well. 24 hours after cell seeding, cells were loaded with 0.5×Fluo8-NW dye in standard tyrode buffer (20 μl/well) for 1 h at room temperature. The ability of dodecyl dihydrogen phosphate to activate fGPR120 expressed by the CHO cells was determined by measuring fluorescence using a FLIPR® Tetra screening system after contacting the cells with the compound in agonist mode and PAM mode according to the following protocol: • 1. […] For mock controls, 0.2μ ATP was used as the agonist.
The maximum of ΔF/F values measured using the FLIPR® Tetra system were exported and used for data analysis.
The compounds used in the experiments were dissolved 6× in 0.01% BSA (fatty acid-free) and then pre-mixed on compound plates with buffer.
Controls for agonist mode experiments—dose response curves of α-linolenic acid (FIGS. 12A and 12B): 100 μM α-linolenic acid (fGpr120 max signal), 30 μM ATP (max signal), buffer (min signal), buffer+0.01% BSA (min signal).

Molecules are shown by their SMILES.

Consider `Nc1ncnc2c1ncn2[C@@H]1O[C@H](COP(=O)(O)OP(=O)(O)OP(=O)(O)O)[C@@H](O)[C@H]1O` [ATP], for which, in test [1], the “EC20 of ATP in mock cells” value worked out at 200 nM. As to `CC/C=C\C/C=C\C/C=C\CCCCCCCC(=O)O` [Compound 24, (9Z,12Z,15Z)-octadeca-9,12,15-trienoic acid], in the test with fGPR120 (fGpr120 cells, concentration used as min signal in PAM mode), the “EC20 of the fGPR120 agonist” value came out at 1500 nM.

Consider `CCCCCCCCCCCCOP(=O)(O)O` [dodecyl dihydrogen phosphate, Dodecyl dihydrogen phosphate], for which the “modulation of fGPR120 activity as positive allosteric modulator (PAM)” value in the test with fGPR120 (PAM mode, in the presence of an fGPR120 agonist (1.5 μM α-linolenic acid, EC20)) is given as “modulated the activity of fGPR120 as a PAM”.

For the origin of these results see US12207673B2, “Compounds that modulate fatty acid receptor activity and pet food products containing the same” (MARS, INCORPORATED, priority 2014, dated 2025).
